Measured values taken from patent publication US10226041B2, “Compositions and methods for improving the quality of processed sperm” (Inguran, LLC, priority 2011, dated 2019).
Values joined by “and” are separate entries in the source; they are usually repeats but may differ in a detail not shown here. Equal entries are not always repeated.

What was measured:
sex-sorted sperm cells [1] = assay: Percent intact acrosomes (PIA) of sex sorted sperm post-thaw; type: cell-based, bovine; conditions: for PIA: 3 step
Description: In the tables below: VAP (average path velocity (μm/s)); VSL (straight-line velocity (μm/s)); VCL (curvilinear velocity (μm/s)); ALH (average lateral head displacement (μm)); BCF (the number of times the sperm head crosses the mean path/s in Hz); STR (percent straight-line sperm motility); LIN (percent linear sperm motility); PIA (percent intact acrosomes); motile (percent motile sperm); and progressive (percent progressively motile sperm).

sex-sorted sperm = assay: DNA fragmentation of sex-sorted sperm (Halomax for animals kit); type: cell-based, cattle
Experimental: The levels of DNA fragmentation were also screened using a DNA fragmentation ‘Halomax for animals’ kit (Halotech DNA, sl, Madrid, Spain) to determine if there were any advantageous effects of using the antioxidants during the staining and processing of sex-sorted sperm. Two different breeds of cattle, Jersey and Holstein, were examined using two different concentrations of antioxidant, 0.25 mg/ml and 0.5 mg/ml of vitamin B12 with the 3 step protocol adding the same concentration of OSR during cell staining, in the collection catch fluid and prior to cryopreservation. One of the bulls was used to evaluate the effect of addition or omission of OSR at one or more of the sperm sorting steps. Motility and the level of DNA fragmentation were both recorded.

sex-sorted sperm cells [2] = assay: CASA post-thaw motility of sex sorted bull sperm treated with OSR; type: cell-based, bovine; conditions: 3 hr; 1 step-stain (+−−); Bull C (Jersey), Trial 2

`O=C(O)CCC(=O)C(=O)O` [AKG, Alpha-ketoglutarate] showed a PIA (sex-sorted sperm cells [1]; Holstein 3 hr post-thaw (1st block), .25 mg/ml) of 89, a PIA (sex-sorted sperm cells [1]; Holstein 3 hr post-thaw (1st block), .35 mg/ml) of 80 and a PIA (sex-sorted sperm cells [1]; Holstein 3 hr post-thaw (1st block), .45 mg/ml) of 80. For the same compound, the PIA (sex-sorted sperm cells [1]; Holstein 3 hr post-thaw (2nd block), .25 mg/ml) was 89, the PIA (sex-sorted sperm cells [1]; Holstein 3 hr post-thaw (2nd block), .35 mg/ml) was 80 and the PIA (sex-sorted sperm cells [1]; Holstein 3 hr post-thaw (2nd block), .45 mg/ml) was 80. The PIA (sex-sorted sperm cells [1]; Holstein 6 hr post-thaw (1st block), .25 mg/ml) was 73, the PIA (sex-sorted sperm cells [1]; Holstein 6 hr post-thaw (1st block), .35 mg/ml) was 85 and the PIA (sex-sorted sperm cells [1]; Holstein 6 hr post-thaw (1st block), .45 mg/ml) was 79. For the same compound, the PIA (sex-sorted sperm cells [1]; Holstein 6 hr post-thaw (2nd block), .25 mg/ml) was 73, the PIA (sex-sorted sperm cells [1]; Holstein 6 hr post-thaw (2nd block), .35 mg/ml) was 85 and the PIA (sex-sorted sperm cells [1]; Holstein 6 hr post-thaw (2nd block), .45 mg/ml) was 79. For the same compound, the PIA (sex-sorted sperm cells [1]; Jersey 3 hr post-thaw, .25 mg/ml) was 62, the PIA (sex-sorted sperm cells [1]; Jersey 3 hr post-thaw, .35 mg/ml) was 54 and the PIA (sex-sorted sperm cells [1]; Jersey 3 hr post-thaw, .45 mg/ml) was 71.
vitamin B12 was tested, and the “PIA (percent intact acrosomes)” value (sex-sorted sperm cells [1]; 0.5 mg/ml, 2 step F, 3 hrs post-thaw, Bulls 1-5) was 84% and 87% and 88% and 79% and 74%, the PIA (sex-sorted sperm cells [1]; .15 mg/ml, Holstein, 1M/straw, 3 hr post-thaw) was 66 and the PIA (sex-sorted sperm cells [1]; .15 mg/ml, Holstein, 2.1M/straw, 3 hr post-thaw) was 72. For the same compound, the PIA (sex-sorted sperm cells [1]; .15 mg/ml, Jersey, 2.1M/straw, 3 hr post-thaw) was 63, the PIA (sex-sorted sperm cells [1]; .25 mg/ml, Holstein, 1M/straw, 3 hr post-thaw) was 58 and the PIA (sex-sorted sperm cells [1]; .25 mg/ml, Holstein, 2.1M/straw, 3 hr post-thaw) was 76. It also gave a PIA (sex-sorted sperm cells [1]; .25 mg/ml, Holstein, 5M/straw, 3 hr post-thaw) of 68, a PIA (sex-sorted sperm cells [1]; .25 mg/ml, Jersey, 2.1M/straw, 3 hr post-thaw) of 78 and a PIA (sex-sorted sperm cells [1]; .35 mg/ml, Holstein, 1M/straw, 3 hr post-thaw) of 70. For the same compound, the PIA (sex-sorted sperm cells [1]; .35 mg/ml, Holstein, 2.1M/straw, 3 hr post-thaw) was 60, the PIA (sex-sorted sperm cells [1]; .35 mg/ml, Holstein, 5M/straw, 3 hr post-thaw) was 69 and the PIA (sex-sorted sperm cells [1]; .5 mg/ml, Holstein, 5M/straw, 3 hr post-thaw) was 50. The “% DNA Fragmentation” value (sex-sorted sperm; 0 hr, 1 step-stain (+−−), Bull C (Jersey), Trial 1) was 0.7%, the “% DNA Fragmentation” value (sex-sorted sperm; 0 hr, 1 step-stain (+−−), Bull C (Jersey), Trial 2) was 0.7% and the “% DNA Fragmentation” value (sex-sorted sperm; 0 hr, 2 step-stain (++−), Bull C (Jersey), Trial 1) was 0.3%. The “% DNA Fragmentation” value (sex-sorted sperm; 0 hr, 2 step-stain (++−), Bull C (Jersey), Trial 2) was 0.3%, the “% DNA Fragmentation” value (sex-sorted sperm; 0 hr, 3 step (+++), Bull C (Jersey), Trial 1) was 0% and the “% DNA Fragmentation” value (sex-sorted sperm; 0 hr, 3 step (+++), Bull C (Jersey), Trial 2) was 0.3%. For the same compound, the “% DNA Fragmentation” value (sex-sorted sperm; 0 hr, vitamin B12 0.5 mg/ml, 3 step, Bull A (Jersey)) was 0.3%, the “% DNA Fragmentation” value (sex-sorted sperm; 0 hr, vitamin B12 0.5 mg/ml, 3 step, Bull B (Holstein)) was 0.3% and the “% DNA Fragmentation” value (sex-sorted sperm; 24 hr, 1 step-stain (+−−), Bull C (Jersey), Trial 1) was 1%. For the same compound, the “% DNA Fragmentation” value (sex-sorted sperm; 24 hr, 1 step-stain (+−−), Bull C (Jersey), Trial 2) was 1%, the “% DNA Fragmentation” value (sex-sorted sperm; 24 hr, 2 step-stain (++−), Bull C (Jersey), Trial 1) was 1% and the “% DNA Fragmentation” value (sex-sorted sperm; 24 hr, 2 step-stain (++−), Bull C (Jersey), Trial 2) was 0.7%. The “% DNA Fragmentation” value (sex-sorted sperm; 24 hr, 3 step (+++), Bull C (Jersey), Trial 1) was 0.3%, the “% DNA Fragmentation” value (sex-sorted sperm; 24 hr, 3 step (+++), Bull C (Jersey), Trial 2) was 0.3% and the “% DNA Fragmentation” value (sex-sorted sperm; 24 hr, vitamin B12 0.5 mg/ml, 3 step, Bull A (Jersey)) was 0.7%. For the same compound, the “% DNA Fragmentation” value (sex-sorted sperm; 24 hr, vitamin B12 0.5 mg/ml, 3 step, Bull B (Holstein)) was 0.3%, the “% DNA Fragmentation” value (sex-sorted sperm; 48 hr, 1 step-stain (+−−), Bull C (Jersey), Trial 1) was 1.3% and the “% DNA Fragmentation” value (sex-sorted sperm; 48 hr, 1 step-stain (+−−), Bull C (Jersey), Trial 2) was 1%. For the same compound, the “% DNA Fragmentation” value (sex-sorted sperm; 48 hr, 2 step-stain (++−), Bull C (Jersey), Trial 1) was 1%, the “% DNA Fragmentation” value (sex-sorted sperm; 48 hr, 2 step-stain (++−), Bull C (Jersey), Trial 2) was 0.7% and the “% DNA Fragmentation” value (sex-sorted sperm; 48 hr, 3 step (+++), Bull C (Jersey), Trial 1) was 0.3%. The “% DNA Fragmentation” value (sex-sorted sperm; 48 hr, 3 step (+++), Bull C (Jersey), Trial 2) was 0.7%, the “% DNA Fragmentation” value (sex-sorted sperm; 48 hr, vitamin B12 0.5 mg/ml, 3 step, Bull A (Jersey)) was 1.3% and the “% DNA Fragmentation” value (sex-sorted sperm; 48 hr, vitamin B12 0.5 mg/ml, 3 step, Bull B (Holstein)) was 0.7%. For the same compound, the “% Motility” value (sex-sorted sperm cells [2]) was 37%.
